The test system of one assay is A2780-1A9. Kind of assay: MTT cell cytotoxicity assay. The assay is classed as cell-based, human. The method, then:
(§1) Cell survival was determined using the MTT assay (3-[4,5-dimethylthiazol-2-yl]-2,5-diphenyltetrazolium bromide; Sigma, Saint-Quentin Fallavier, France). The conversion of yellow water-soluble tetrazolium MTT into purple insoluble formazan is catalyzed by mitochondrial dehydrogenases and used to estimate the number of viable cells. In brief, cells were seeded in 96-well tissue culture plates at a density of 2×10^3 cells/well. After 72 h drug exposure and 48 h wash-out, cells were incubated with 0.4 mg/ml MTT for 4 hours at 37° C. After incubation, the supernatant was discarded, insoluble formazan precipitates were dissolved in 0.1 ml of DMSO and the absorbance was measured at 560 nm by use of a microplate reader (Thermo, France). Wells with untreated cells or with drug-containing medium without cells were used as positive and negative controls respectively. IC50's were determined as the halves of maximal inhibitory drug concentration for each cell line.
(§2) The antiproliferative effects of OTX-008 and anginex were assessed using MTT assay in a panel of human cancer cell lines of human origins expressing various levels of Lgals-1 mRNA and galectin-1 protein expressions (Supplementary Table 1). […] Remaining cell lines were less sensitive to OTX-008 with GI50 values >9 μM. […] No correlation between mRNA expressions of galectin-2, galectin-3, and galectin-8 as well as semaphorin-3A, semaphorin-3B, neuropilin-1, VEGFR1-3, VEGFA-D, and PDGFRa&P3 and sensitivity to OTX-008 were detected in the panel.

Another assay has as its system SQ20B. Put plainly: MTT cell cytotoxicity assay. In kind it is cell-based, human. The method, then: as §1, §2
A general note: Tetrazolium dyes change colour on reduction, which living cells bring about.

The test system of the next assay is OVCAR3. Put plainly: MTT cell cytotoxicity assay. The assay is classed as cell-based, human. Particulars: 72 h drug exposure and 48 h wash-out. On the procedure: as §1, §2
In the next assay the target is T1, galectin-1 (Homo sapiens, UniProt P09382).
T1 construct: Western Blot of galectin-1 on SQ20B cells treated with 3 μM OTX-008 for 24 h, 48 h and 72 h; endogenous in cells; host or cells: SQ20B (ATCC)
Kind of assay: Immunofluorescence of galectin-1 in SQ20B cells. In kind it is cell-based. On the procedure: FIG. 3. Effects of OTX-008 on galectin-1 expression and localization. A—Western Blot of galectin-1 on SQ20B cells treated with 3 μM OTX-008 for 24 h, 48 h and 72 h. B and C—Immunofluorescence of galectin-1 on SQ20B cells treated with 3 μM OTX-008 for 24 and 48 h. B—OTX-008 treatment decreases galectin-1 immunostaining in SQ20B cells. C—Galectin-1 translocates into the nucleus after OTX-008 exposure. D—Western Blot of p-AKTser473, AKT, p-S6, p-ERK1/2, ERK and p-PKCα in SQ20B cells treated with 3 μM OTX-008 for 10 min, 1 h, 2 h, 5 h and 24 h.
The cells were grown on cover slips at 37° C. overnight. The growth media was then removed; the cells were washed with PBS and fixed in 4% of paraformaldhyde for 15 min and permeabilized with PBS/tritonX100 (1:500) then washed again with PBS. Incubation with primary antibodies was performed at 4° C. overnight (galectin-1, 1:100; Abcam, Cambridge, Mass., USA), followed by the incubation with the secondary antibodies (anti-mouse, 1:100; Cell Signaling, Saint Quentin Yvelines, France) for 1 h at room temperature in the dark. The nuclei were stained with Dapi 1:10000 (Santa Cruz Biotechnology, Santa Cruz, Calif., USA). The images were captured and analyzed with a Zeiss observer Z1 microscope. Images quantification was performed using Histolab Software (Microvision, France) subtracting the background. Magnification ×20 and ×40.

For another assay, the system named is GAL1 mRNA. Kind of assay: Real-time RT-PCR of GAL1 mRNA. Particulars: OTX-008 exposed cancer cells. In kind it is cell-based, human. An excerpt: The theoretical and practical aspects of real-time quantitative RT-PCR using the ABI Prism 7900 Sequence Detection System (Perkin-Elmer Applied Biosystems, Foster City, Calif., USA) have been described in detail elsewhere Results were expressed as n-fold differences in target gene expression relative to the TBP gene (an endogenous RNA control) and relative to a calibrator (1× sample), consisting of the cell line sample from our tested series that contained the smallest amount of target gene mRNA. Experiments were performed in duplicate.
Background: Quantitative PCR measures a nucleic acid by following its amplification.

The next assay has as its system SQ20B cells. Put plainly: Matrigel invasion assay. In kind it is cell-based, human. On the procedure: FIG. 5. Modulation of the galectin-1/semaphorin-3A/neuropilin system in SQ20B cells. A—Effects of galectin-1 (Gall), semaphorin-3A (Sema3A), lactose, with or without four different concentrations of OTX-008 on SQ20B growth at day 6. Embedded figure: Proliferation assay of SQ20B and SQ-shGAL1. B—In vitro matrigel invasion assay of SQ20B exposed to […] galectin-1, 1 μg/ml semaphorin-3A, 200 ng/ml lactose or 10 μM UO126 with or without 3 μM OTX-008. Embedded figure: In vitro matrigel invasion assay of SQ20B and SQ-shGAL1. Invasion was quantified after 48 h by counting the average number of invaded cells.
8 μm membranes were coated with Matrigel (50 μg). The inserts were placed within a 24-well chamber containing 0.6 ml of RPMI 1640 medium with 20% fetal bovine serum as chemoattractant. 10^5 cells were seeded into the inserts suspended in 0.3 ml of serum-free RPMI. After incubation for 48 h at 37° C., the upper surface of the filter was scraped to remove non-invasive cells. Invasive cells were fixed and stained with a Diff Quik detection Kit (Dade Behring, Paris, France). For quantification, the average number of invading cells per field was assessed by counting 9 random fields under a light microscope (400×).
Galectin-1 may form extracellular lattices counteracting the inhibitory properties of semaphorin-3A on neuropilin-1, eventually leading to the modulation of the vascular endothelial growth factor (VEGFR) and platelet derived growth factor (PDGFR) receptors, fibronectin, and laminin activity SQ20B cells expressed significant mRNA and protein levels of semaphorin-3A and neuropilin-1, PDGFRa&(, VEGF A-D, and VEGFR1-3 (Supplementary FIG. 2A). Thus, SQ20B cells were selected to evaluate the effects of OTX-008 on galectin-1/semaphorin-3A interactions. No difference between SQ20B cells growing in plastic or fibronectin- and laminin-coated plates. […] Galectin-1 and semaphorin-3A induced invasion was inhibited by OTX-008 mimicking the effects of lactose in this model.

A further assay concerns chk1, chk2, and cdc25C. Put plainly: chk1, chk2 and cdc25C phosphorylation in SQ20B. In kind it is cell-based, human. Particulars: OTX-008-treated SQ20B cells.
[1] abbreviates: 72 h drug exposure and 48 h wash-out.

T1 sequence (P09382 whole entry): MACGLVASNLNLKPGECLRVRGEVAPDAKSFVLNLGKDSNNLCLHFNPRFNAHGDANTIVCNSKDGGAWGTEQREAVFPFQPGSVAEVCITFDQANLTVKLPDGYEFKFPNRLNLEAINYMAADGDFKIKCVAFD

Consider `CN(C)CCNC(=O)COc1c2cccc1Cc1cccc(c1OCC(=O)NCCN(C)C)Cc1cccc(c1OCC(=O)NCCN(C)C)Cc1cccc(c1OCC(=O)NCCN(C)C)C2` [OTX-008], for which, in the assay on A2780-1A9, the “sensitivity to OTX-008” value is listed as “only marginally sensitive”. The “antiproliferative effects (MTT)” value in the assay with A2780-1A9 (setting [1]), with SQ20B (setting [1]) and with OVCAR3 was “dose-dependent antiproliferative effects” in each case. The “sensitivity to OTX-008 among the cell lines tested” value with SQ20B is given as “most sensitive”. The galectin-1 localization entry at galectin-1 (3 μM OTX-008) is given as “translocates from the cytoplasm to the nucleus”. For the same molecule, the “galectin-1 expression in the cytoplasm (immunofluorescence)” value at galectin-1 (3 μM OTX-008, 24 and 48 h) is reported as “decrease galectin-1 expression”. Further, the “GAL1 mRNA expression” value with GAL1 mRNA is “No change”. The “invasion of SQ20B cells, agent alone” value in the assay on SQ20B cells (48 h, 1 g/ml galectin-1, 1 μg/ml semaphorin-3A, 10 μM UO126, 3 μM OTX-008) is “inhibits proliferation and invasion”. For the same molecule, the “galectin-1 and semaphorin-3A induced invasion” value with SQ20B cells (SQ20B, 3 μM OTX-008, 48 h) is “inhibited”. The “chk1, chk2, and cdc25C phosphorylation levels” value in the assay with chk1, chk2, and cdc25C is reported as “Mild to no changes”.

The values above are taken from patent US20140243415A1, “COMPOUNDS INHIBITING GALECTIN-1 EXPRESSION, CANCER CELL PROLIFERATION, INVASION, AND TUMORIGENESIS” (ONCOETHIX SA, priority 2011, published 2014).
